Assay: xn = mol fraction of the nth substance listed
Settings: 100 kPa, Liquid; for viscosity: Concentric cylinders viscometry; for mass density: Vibrating tube method

Nc1ccccc1 [aniline] + CC(C)O
Settings	mass density [kg/m3]	viscosity [mPa·s]
293.15 K, x1 = 0.0813	809.7	2.291
293.15 K, x1 = 0.1599	832	2.176
293.15 K, x1 = 0.2396	853.7	2.12
293.15 K, x1 = 0.349	882	2.1
293.15 K, x1 = 0.4402	904.3	2.17
293.15 K, x1 = 0.5598	932.1	2.33
293.15 K, x1 = 0.6501	952	2.54
293.15 K, x1 = 0.74	971	2.81
293.15 K, x1 = 0.8499	993.2	3.31
293.15 K, x1 = 0.9402	1010.6	3.93
293.15 K, x1 = 1	1021.7	4.37
298.15 K, x1 = 0.0813	805.3	1.963
298.15 K, x1 = 0.1599	827.5	1.86
298.15 K, x1 = 0.2396	849.2	1.8
298.15 K, x1 = 0.349	877.4	1.78
298.15 K, x1 = 0.4402	899.7	1.84
298.15 K, x1 = 0.5598	927.6	1.98
298.15 K, x1 = 0.6501	947.5	2.16
298.15 K, x1 = 0.74	966.5	2.39
298.15 K, x1 = 0.8499	988.8	2.84
298.15 K, x1 = 0.9402	1006.2	3.39
298.15 K, x1 = 1	1017.4	3.8
303.15 K, x1 = 0.0813	800.8	1.651
303.15 K, x1 = 0.1599	823	1.56
303.15 K, x1 = 0.2396	844.6	1.5
303.15 K, x1 = 0.349	872.8	1.47
303.15 K, x1 = 0.4402	895.1	1.48
303.15 K, x1 = 0.5598	923	1.58
303.15 K, x1 = 0.6501	942.9	1.7
303.15 K, x1 = 0.74	961.9	1.9
303.15 K, x1 = 0.8499	984.2	2.27
303.15 K, x1 = 0.9402	1001.8	2.73
303.15 K, x1 = 1	1013.2	3.13
308.15 K, x1 = 0.0813	796.4	1.454
308.15 K, x1 = 0.1599	818.5	1.39
308.15 K, x1 = 0.2396	840	1.34
308.15 K, x1 = 0.349	868.2	1.3
308.15 K, x1 = 0.4402	890.6	1.3
308.15 K, x1 = 0.5598	918.5	1.36
308.15 K, x1 = 0.6501	938.5	1.48
308.15 K, x1 = 0.74	957.6	1.67
308.15 K, x1 = 0.8499	980	1.99
308.15 K, x1 = 0.9402	997.7	2.39
308.15 K, x1 = 1	1009	2.75
313.15 K, x1 = 0.0813	791.9	1.29
313.15 K, x1 = 0.1599	814	1.23
313.15 K, x1 = 0.2396	835.5	1.18
313.15 K, x1 = 0.349	863.6	1.15
313.15 K, x1 = 0.4402	885.9	1.14
313.15 K, x1 = 0.5598	913.8	1.2
313.15 K, x1 = 0.6501	933.9	1.3
313.15 K, x1 = 0.74	953.1	1.48
313.15 K, x1 = 0.8499	975.6	1.79
313.15 K, x1 = 0.9402	993.3	2.13
313.15 K, x1 = 1	1004.7	2.43
318.15 K, x1 = 0.0813	787.2	1.125
318.15 K, x1 = 0.1599	809.2	1.076
318.15 K, x1 = 0.2396	830.7	1.043
318.15 K, x1 = 0.349	858.9	1.02
318.15 K, x1 = 0.4402	881.2	1.03
318.15 K, x1 = 0.5598	909.2	1.08
318.15 K, x1 = 0.6501	929.2	1.166
318.15 K, x1 = 0.74	948.5	1.34
318.15 K, x1 = 0.8499	971.1	1.6
318.15 K, x1 = 0.9402	988.9	1.9
318.15 K, x1 = 1	1000.4	2.14
323.15 K, x1 = 0.0813	782.4	0.97
323.15 K, x1 = 0.1599	804.3	0.91
323.15 K, x1 = 0.2396	825.7	0.88
323.15 K, x1 = 0.349	853.8	0.85
323.15 K, x1 = 0.4402	876.2	0.86
323.15 K, x1 = 0.5598	904.1	0.91
323.15 K, x1 = 0.6501	924.2	1.01
323.15 K, x1 = 0.74	943.4	1.18
323.15 K, x1 = 0.8499	966.1	1.45
323.15 K, x1 = 0.9402	984	1.74
323.15 K, x1 = 1	995.5	1.96

Reference: the NIST ThermoML archive (doi:10.1021/acs.jced.6b00210)
